Assay results taken from PMC10507793, “Discovery and computational studies of piperidine/piperazine-based compounds endowed with sigma receptor affinity” (RSC Medicinal Chemistry, 2023).
Entries after “also recorded” stand apart in the source; their conditions may differ.

Tests used:
[1] = biological target: T1, S2R (Rattus norvegicus, UniProt Q5U3Y7); assay: S2R radioligand binding assay with [3H]DTG; details: for Ki: read-out: Ki ± SD S2R, rat liver homogenates, [3H]DTG, (+)-pentazocine as S1R masking agent, mean ± SD of at least two experiments in duplicate; for binding to S2R (in words): radioligand binding
T1 sequence (Q5U3Y7 1-176): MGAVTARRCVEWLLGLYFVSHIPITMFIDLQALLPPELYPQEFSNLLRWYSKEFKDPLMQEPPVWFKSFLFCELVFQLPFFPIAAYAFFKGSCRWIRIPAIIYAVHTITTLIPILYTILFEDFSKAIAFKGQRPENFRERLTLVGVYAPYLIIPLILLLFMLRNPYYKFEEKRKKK

[2] = biological target: T2, S1R (Rattus norvegicus, UniProt Q9R0C9); assay: S1R radioligand binding assay with [3H](+)-pentazocine; details: for Ki: read-out: Ki ± SD S1R, rat liver homogenates, [3H](+)pentazocine, mean ± SD of at least two experiments in duplicate; for KiS2R/KiS1R ratio: selectivity over S2R; for binding to S1R (in words): radioligand binding
[3] = biological target: S1R; details: co-crystallized ligand; no reference given; read-out: KiS1R; cited from earlier work
[4] = biological target: T2, S1R; assay: S1R functional assay (phenytoin method, [3H](+)-pentazocine displacement); type: binding; set-up: liver homogenates from male Sprague Dawley rats; from tissue; host or cells: rat liver homogenate (male Sprague Dawley); details: rat liver; for ratio of Ki without phenytoin/with phenytoin: agonist if ratio >1, antagonist if ≤1
Experimental: Phenytoin is an allosteric modulator for the S1R, and it differentially modulates the affinity of S1R ligands on the basis of their agonist or antagonist profile.[22,23]
The experiments were performed one time in the presence of phenytoin and one time without phenytoin. […] The incubation of samples lasts 120 min at 37 °C. Unlabeled (+)-pentazocine (10 μM) was used to measure non-specific binding.
GraphPad Prism® 7.0 (GraphPad Software, San Diego, CA, USA) program was used to calculate the Ki values that are given as mean value ± SD from at least two independent experiments performed in duplicate.

T2 sequence (Q9R0C9 whole entry): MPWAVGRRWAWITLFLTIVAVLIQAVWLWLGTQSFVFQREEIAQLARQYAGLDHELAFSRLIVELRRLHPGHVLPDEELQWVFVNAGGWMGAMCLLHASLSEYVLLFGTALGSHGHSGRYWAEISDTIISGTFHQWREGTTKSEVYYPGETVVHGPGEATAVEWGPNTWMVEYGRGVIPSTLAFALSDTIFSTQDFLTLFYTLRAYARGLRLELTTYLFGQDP

SMILES	Ki [1] [nM]	Ki [2] [nM]	other results
O=C(CCN1CCC(Cc2ccccc2)CC1)N1CCN(c2ccc(O)cc2)CC1 [Compound 4]	1000 ± 203	328 ± 58	
O=C(NC1CCN(Cc2ccccc2)CC1)c1ccc(I)cc1 [4-IBP]			Ki [3]: 1.7 nM
O=C(Cc1ccccc1Br)N1CCN(Cc2ccc(F)cc2)CC1 [Compound 10]	> 10000	366 ± 80	
O=C(CN1CCC(Cc2ccccc2)CC1)N1CCN(c2ccc(O)cc2)CC1 [Compound 2]	1200 ± 226	24 ± 5	KiS2R/KiS1R ratio [2]: 50
O=C(c1cc2ccccc2s1)N1CCN(Cc2ccc(F)cc2)CC1 [Compound 6]	> 10000	82 ± 18	
C=CCN1CC[C@]2(C)c3cc(O)ccc3C[C@H]1[C@H]2C [SKF-10 047, reference compound]			ratio of Ki without phenytoin/with phenytoin [4]: 3.2
O=C(CCN1CCC(Cc2ccc(F)cc2)CC1)N1CCN(c2ccc(O)cc2)CC1 [Compound 5]	610 ± 146	434 ± 47	
O=C(CN1CCC(Cc2ccccc2)CC1)N1CCN(c2ccccc2)CC1 [Compound 1, 2-[4-(benzyl)-1-piperidin-1-yl]-1-4-(4-phenylpiperazin-1-yl)ethanone]	104 ± 15	3.2 ± 0.7	KiS2R/KiS1R ratio [2]: 33; S1R functional profile ([4]; phenytoin assay): S1R agonist; ratio of Ki without phenytoin/with phenytoin [4]: 1.8
O=C(c1ccc([N+](=O)[O-])s1)N1CCN(Cc2ccc(F)cc2)CC1 [Compound 9]	> 10000	309 ± 55	
O=C(c1ccccc1)N1CCN(c2ccc(O)cc2)CC1 [Compound 12]	> 10000	> 10000	binding to S2R (in words) [1]: failed to bind; also recorded: did not bind; binding to S1R (in words) [2]: failed to bind; also recorded: did not bind
Cc1ccc(C(=O)N2CCN(Cc3ccc(F)cc3)CC2)o1 [Compound 8]	> 10000	214 ± 29	
O=C(C(c1ccccc1)c1ccccc1)N1CCN(Cc2ccc(F)cc2)CC1 [Compound 11]	> 10000	390 ± 77	
O=C(c1cc2ccccc2o1)N1CCN(Cc2ccc(F)cc2)CC1 [Compound 7]	> 10000	132 ± 27	
O=C(CCN1CCC(Cc2ccccc2)CC1)N1CCN(c2ccccc2)CC1 [Compound 3]	234 ± 43	8.9 ± 1.3	KiS2R/KiS1R ratio [2]: 26
O=C(c1ccc(-c2ccccc2)cc1)N1CCN(c2ccc(O)cc2)CC1 [Compound 13]	> 10000	> 10000	binding to S2R (in words) [1]: failed to bind; also recorded: did not bind; binding to S1R (in words) [2]: failed to bind; also recorded: did not bind
